Experimental data taken from ChEMBL document CHEMBL4219213, “The design, synthesis and structure-activity relationships associated with C28 amine-based betulinic acid derivatives as inhibitors of HIV-1 maturation” (Bioorg Med Chem Lett, 2018).
pEC50: −log10 of the molar value.

Legend:
[1] = in vivo; conditions: Sprague-Dawley, rat, po, 5 mg/kg
[2] = cells; conditions: Human immunodeficiency virus 1, subtype B NL4-3, MT2
[3] = in vivo; conditions: Sprague-Dawley, rat, po, 5 mg/kg; remark: listed apart in the source
[4] = in vitro; conditions: human, MT2 cells
Description: Cytotoxicity against human MT2 cells

[5] = tested on: Rattus norvegicus; experiment: Toxicity in Sprague-Dawley rat at 5 to 124 mg/kg, po via gavage up to 24 hrs by LC-MS/MS analysis; assay type: organism-based; conditions: in vivo
[6] = tested on: Rattus norvegicus; experiment: Dose normalized AUC in Sprague-Dawley rat at 5 mg/kg, po via gavage up to 24 hrs by LC-MS/MS analysis; assay type: ADME, organism-based; conditions: in vivo
[7] = tested on: Rattus norvegicus; experiment: Extrapolated AUC in Sprague-Dawley rat at 124 mg/kg, po via gavage up to 24 hrs by LC-MS/MS analysis; assay type: ADME, organism-based; conditions: in vivo
[8] = tested on: Rattus norvegicus; experiment: Extrapolated AUC in Sprague-Dawley rat at 35 mg/kg, po via gavage up to 24 hrs by LC-MS/MS analysis; assay type: ADME, organism-based; conditions: in vivo
[9] = Dose normalized plasma concentration in Sprague-Dawley rat at 124 mg/kg, po via gavage after 24 hrs by LC-MS/MS analysis; assay type: ADME, organism-based; conditions: in vivo
[10] = tested on: Rattus norvegicus; experiment: Extrapolated AUC in Sprague-Dawley rat at 11.8 mg/kg, po via gavage up to 24 hrs by LC-MS/MS analysis; assay type: ADME, organism-based; conditions: in vivo
[11] = Dose normalized plasma concentration in Sprague-Dawley rat at 35 mg/kg, po via gavage after 24 hrs by LC-MS/MS analysis; assay type: ADME, organism-based; conditions: in vivo
[12] = Total AUC in Sprague-Dawley rat at 11.8 mg/kg, po via gavage up to 24 hrs by LC-MS/MS analysis; assay type: ADME, organism-based; design: dose 11.8 mg/kg, time AUCmax, route oral; conditions: in vivo
[13] = in vivo; conditions: Sprague-Dawley, rat, plasma, po, 5 mg/kg
Description: Plasma concentration in Sprague-Dawley rat at 5 mg/kg, po via gavage after 24 hrs by LC-MS/MS analysis

[14] = tested on: Rattus norvegicus; experiment: Dose normalized AUC in Sprague-Dawley rat at 124 mg/kg, po via gavage up to 24 hrs by LC-MS/MS analysis; assay type: ADME, organism-based; conditions: in vivo
[15] = AUClast in Sprague-Dawley rat at 35 mg/kg, po via gavage up to 24 hrs by LC-MS/MS analysis; assay type: ADME, organism-based; design: time < 24 hr, dose 35 mg/kg, route oral; conditions: in vivo
[16] = Plasma concentration in Sprague-Dawley rat at 11.8 mg/kg, po via gavage after 24 hrs by LC-MS/MS analysis; assay type: ADME, organism-based
[17] = Dose normalized plasma concentration in Sprague-Dawley rat at 11.8 mg/kg, po via gavage after 24 hrs by LC-MS/MS analysis; assay type: ADME, organism-based; conditions: in vivo
[18] = Cmax in Sprague-Dawley rat at 124 mg/kg, po via gavage by LC-MS/MS analysis; assay type: ADME, organism-based; design: dose 124 mg/kg, route oral; conditions: in vivo
[19] = tested on: Rattus norvegicus; experiment: Dose normalized AUC in Sprague-Dawley rat at 11.8 mg/kg, po via gavage up to 24 hrs by LC-MS/MS analysis; assay type: ADME, organism-based; conditions: in vivo
[20] = Oral bioavailability in Sprague-Dawley rat at 35 mg/kg via gavage up to 24 hrs by LC-MS/MS analysis; assay type: ADME, organism-based; conditions: in vivo
[21] = Tmax in Sprague-Dawley rat at 11.8 mg/kg, po via gavage by LC-MS/MS analysis; assay type: ADME, organism-based; conditions: in vivo
[22] = Oral bioavailability in Sprague-Dawley rat at 5 mg/kg via gavage up to 24 hrs by LC-MS/MS analysis; assay type: ADME, organism-based; conditions: in vivo
[23] = AUClast in Sprague-Dawley rat at 5 mg/kg, po via gavage up to 24 hrs by LC-MS/MS analysis; assay type: ADME, organism-based; design: time < 24 hr, dose 5 mg/kg, route oral; conditions: in vivo
[24] = Cmax in Sprague-Dawley rat at 11.8 mg/kg, po via gavage by LC-MS/MS analysis; assay type: ADME, organism-based; design: dose 11.8 mg/kg, route oral; conditions: in vivo
[25] = Plasma concentration in Sprague-Dawley rat at 35 mg/kg, po via gavage after 24 hrs by LC-MS/MS analysis; assay type: ADME, organism-based
[26] = Dose normalized plasma concentration in Sprague-Dawley rat at 5 mg/kg, po via gavage after 24 hrs by LC-MS/MS analysis; assay type: ADME, organism-based; conditions: in vivo
[27] = Oral bioavailability in Sprague-Dawley rat at 124 mg/kg via gavage up to 24 hrs by LC-MS/MS analysis; assay type: ADME, organism-based; conditions: in vivo
[28] = Cmax in Sprague-Dawley rat at 35 mg/kg, po via gavage by LC-MS/MS analysis; assay type: ADME, organism-based; design: dose 35 mg/kg, route oral; conditions: in vivo
[29] = Oral bioavailability in Sprague-Dawley rat at 11.8 mg/kg via gavage up to 24 hrs by LC-MS/MS analysis; assay type: ADME, organism-based; conditions: in vivo
[30] = Tmax in Sprague-Dawley rat at 124 mg/kg, po via gavage by LC-MS/MS analysis; assay type: ADME, organism-based; conditions: in vivo
[31] = Tmax in Sprague-Dawley rat at 5 mg/kg, po via gavage by LC-MS/MS analysis; assay type: ADME, organism-based; conditions: in vivo
[32] = AUClast in Sprague-Dawley rat at 11.8 mg/kg, po via gavage up to 24 hrs by LC-MS/MS analysis; assay type: ADME, organism-based; design: dose 11.8 mg/kg, time < 24 hr, route oral; conditions: in vivo
[33] = Plasma concentration in Sprague-Dawley rat at 124 mg/kg, po via gavage after 24 hrs by LC-MS/MS analysis; assay type: ADME, organism-based
[34] = Total AUC in Sprague-Dawley rat at 35 mg/kg, po via gavage up to 24 hrs by LC-MS/MS analysis; assay type: ADME, organism-based; design: dose 35 mg/kg, time AUCmax, route oral; conditions: in vivo
[35] = Total AUC in Sprague-Dawley rat at 5 mg/kg, po via gavage up to 24 hrs by LC-MS/MS analysis; assay type: ADME, organism-based; design: dose 5 mg/kg, time AUCmax, route oral; conditions: in vivo
[36] = Cmax in Sprague-Dawley rat at 5 mg/kg, po via gavage by LC-MS/MS analysis; assay type: ADME, organism-based; design: dose 5 mg/kg, route oral; conditions: in vivo
[37] = Total AUC in Sprague-Dawley rat at 124 mg/kg, po via gavage up to 24 hrs by LC-MS/MS analysis; assay type: ADME, organism-based; design: dose 124 mg/kg, time AUCmax, route oral; conditions: in vivo
[38] = tested on: Rattus norvegicus; experiment: Dose normalized AUC in Sprague-Dawley rat at 35 mg/kg, po via gavage up to 24 hrs by LC-MS/MS analysis; assay type: ADME, organism-based; conditions: in vivo
[39] = tested on: Rattus norvegicus; experiment: Extrapolated AUC in Sprague-Dawley rat at 5 mg/kg, po via gavage up to 24 hrs by LC-MS/MS analysis; assay type: ADME, organism-based; conditions: in vivo
[40] = AUClast in Sprague-Dawley rat at 124 mg/kg, po via gavage up to 24 hrs by LC-MS/MS analysis; assay type: ADME, organism-based; design: time < 24 hr, dose 124 mg/kg, route oral; conditions: in vivo
[41] = Tmax in Sprague-Dawley rat at 35 mg/kg, po via gavage by LC-MS/MS analysis; assay type: ADME, organism-based; conditions: in vivo

C=C(C)[C@@H]1CC[C@]2(CNCCCN3CCS(=O)(=O)CC3)CC[C@]3(C)[C@H](CC[C@@H]4[C@@]5(C)CC=C(c6ccc(C(=O)O)cc6)C(C)(C)[C@@H]5CC[C@]43C)[C@@H]12
AUC(0-t) at 6 h [1]: 1.71 µM·h
pEC50 [2]: 7.70
AUC(0-t) at 24 h [3]: 2.81 µM·h
CC50 [4]: 3.5 µM
Activity [5]: Non-Toxic

C=C(C)[C@@H]1CC[C@]2(CNCCCN3CCS(=O)(=O)CC3)CC[C@]3(C)[C@H](CC[C@@H]4[C@@]5(C)CC=C(c6ccc(C(=O)O)cc6)C(C)(C)[C@@H]5CC[C@]43C)[C@@H]12.Cl
AUC/dose [6]: 650 µM·h
%AUCextra [7]: 17%
%AUCextra [8]: 14%
Cp/dose [9]: 5.1 nM
%AUCextra [10]: 2%
Cp/dose [11]: 6.7 nM
AUC at 24 h [12]: 5.44 µM·h
concentration at 24 h [13]: 34 nM
AUC/dose [14]: 235 µM·h
AUC(0-t) at 24 h [15]: 11.4 µM·h
concentration at 24 h [16]: 91 nM
Cp/dose [17]: 7.7 nM
Cmax [18]: 697 nM
AUC/dose [19]: 461 µM·h
bioavailability [20]: 7%
Tmax [21]: 4.7 h
bioavailability [22]: 12%
AUC(0-t) at 24 h [23]: 2.99 µM·h
Cmax [24]: 285 nM
concentration at 24 h [25]: 234 nM
Cp/dose [26]: 6.8 nM
bioavailability [27]: 4%
Cmax [28]: 451 nM
bioavailability [29]: 8%
Tmax [30]: 17.3 h
Tmax [31]: 6.7 h
AUC(0-t) at 24 h [32]: 5.31 µM·h
concentration at 24 h [33]: 635 nM
AUC at 24 h [34]: 13.2 µM·h
AUC at 24 h [35]: 3.25 µM·h
Cmax [36]: 232 nM
AUC at 24 h [37]: 29.1 µM·h
AUC/dose [38]: 378 µM·h
%AUCextra [39]: 8%
AUC(0-t) at 24 h [40]: 23.2 µM·h
Tmax [41]: 5.3 h
